{"source": "paper PMC5693303", "about": "(Journal of medicinal chemistry, 2016)", "key": {"KOR [1]": {"molecular_target": "KOR (Cavia porcellus, UniProt P41144)", "sequence (P41144 whole entry)": "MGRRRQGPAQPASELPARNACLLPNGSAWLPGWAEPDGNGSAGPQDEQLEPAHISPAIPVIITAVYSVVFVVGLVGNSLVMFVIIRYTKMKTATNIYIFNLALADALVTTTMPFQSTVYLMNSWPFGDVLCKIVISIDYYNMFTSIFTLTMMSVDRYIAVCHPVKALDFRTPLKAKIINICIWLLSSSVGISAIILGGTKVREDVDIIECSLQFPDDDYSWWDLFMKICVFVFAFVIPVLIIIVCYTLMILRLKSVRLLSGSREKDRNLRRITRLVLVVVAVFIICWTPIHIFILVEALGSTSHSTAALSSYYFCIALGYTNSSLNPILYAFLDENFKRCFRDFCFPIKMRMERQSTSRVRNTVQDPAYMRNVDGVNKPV", "experiment": "GPI/LMMP assay, inhibition of electrically stimulated muscle contraction", "format": "cell-based, guinea pig"}, "KOR [2]": {"molecular_target": "KOR (Homo sapiens, UniProt P41145)", "sequence (P41145 whole entry)": "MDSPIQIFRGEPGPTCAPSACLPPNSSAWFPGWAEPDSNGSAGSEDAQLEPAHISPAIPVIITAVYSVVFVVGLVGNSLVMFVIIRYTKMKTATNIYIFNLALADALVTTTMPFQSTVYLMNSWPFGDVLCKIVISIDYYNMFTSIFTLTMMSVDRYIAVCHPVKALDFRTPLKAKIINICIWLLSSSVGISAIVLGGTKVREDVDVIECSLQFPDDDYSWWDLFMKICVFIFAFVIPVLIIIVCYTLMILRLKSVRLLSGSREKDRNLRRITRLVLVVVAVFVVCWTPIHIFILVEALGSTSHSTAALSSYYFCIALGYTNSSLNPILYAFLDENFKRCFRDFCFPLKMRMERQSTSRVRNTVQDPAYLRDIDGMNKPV", "experiment": "[^35S]GTPγS assay, agonist mode", "format": "biochemical", "settings": "10 µM, KOR-CHO cells, compared to vehicle"}, "hMOR": {"molecular_target": "hMOR (Homo sapiens, UniProt P35372)", "sequence (P35372 whole entry)": "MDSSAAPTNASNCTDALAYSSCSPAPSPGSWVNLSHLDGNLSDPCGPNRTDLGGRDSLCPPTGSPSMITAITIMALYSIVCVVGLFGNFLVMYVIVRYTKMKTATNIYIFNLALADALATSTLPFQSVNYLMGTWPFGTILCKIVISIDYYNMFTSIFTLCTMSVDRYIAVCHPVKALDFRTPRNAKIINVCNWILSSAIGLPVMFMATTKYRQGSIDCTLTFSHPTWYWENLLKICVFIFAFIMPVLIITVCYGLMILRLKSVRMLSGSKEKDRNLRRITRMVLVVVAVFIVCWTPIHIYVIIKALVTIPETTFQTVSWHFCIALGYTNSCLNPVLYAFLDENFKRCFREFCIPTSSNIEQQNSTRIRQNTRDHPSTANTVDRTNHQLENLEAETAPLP", "experiment": "Radioligand competition binding, [^3H]diprenorphine or [^3H]DAMGO", "settings": "[^3H]diprenorphine, Kd = 2.81 nM; NC = no competition"}, "KOR [3]": {"molecular_target": "KOR (Mus musculus, UniProt P33534)", "sequence (P33534 whole entry)": "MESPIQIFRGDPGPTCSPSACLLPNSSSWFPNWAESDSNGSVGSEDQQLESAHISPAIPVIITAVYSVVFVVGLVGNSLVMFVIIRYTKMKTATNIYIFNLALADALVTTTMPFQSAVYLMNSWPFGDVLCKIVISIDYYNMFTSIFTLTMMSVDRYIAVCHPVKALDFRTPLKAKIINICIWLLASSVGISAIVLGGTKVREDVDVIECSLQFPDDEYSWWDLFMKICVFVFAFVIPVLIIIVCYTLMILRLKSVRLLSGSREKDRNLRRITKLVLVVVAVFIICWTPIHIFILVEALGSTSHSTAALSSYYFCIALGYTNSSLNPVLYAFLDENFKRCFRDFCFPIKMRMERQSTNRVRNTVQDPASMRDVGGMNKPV", "experiment": "Tail flick test, pretreatment before KOR agonist 17", "format": "in vivo, mice", "settings": "10 µg in 5 µL l.p., 15 min before 17 (10 µg)"}, "[4]": {"experiment": "Tail flick test, 52 °C water, compound alone"}}, "note": "Marks after values point to notes of the source that are not given here."}
{"substance": "Ac-YGGFLRIRPK-NH2 [compound 5]", "values": [{"measurement": "percent of agonist activity", "setting": "KOR [1]; 1 µM test compound, compared to average signal 3 min prior to drug", "value": 0, "unit": "% ^b"}, {"measurement": "agonist response in GPI/LMMP", "setting": "KOR [1]; in words", "value": "did not show significant responses"}, {"measurement": "KOR activation", "setting": "KOR [2]", "value": "did not show KOR activation"}]}
{"substance": "Ac-YGPFLRIRPK-NH2 [compound 8]", "values": [{"measurement": "Ki", "setting": "hMOR", "value": "no competition"}]}
{"substance": "H-YGGFLRIRPK-NH2 [compound 3]", "values": [{"measurement": "KOR activation", "setting": "KOR [2]", "value": "significant activation"}]}
{"substance": "H-YGPFLRIRPK-NH2 [compound 7]", "values": [{"measurement": "blockade of antinociceptive effect of 17", "setting": "KOR [3]", "value": "significantly blocked"}, {"measurement": "elevation of TWL, % of max response", "setting": "[4]; 10 µg in 5 µL i.t., 30 min", "value": "39.45 ± 6.95", "unit": "%"}, {"measurement": "tail withdrawal latency (antinociceptive effect)", "setting": "[4]; 0.1, 1.0 and 10 µg in 5 µL i.t., compared to vehicle", "value": "significantly elevated tail withdrawal latency"}]}
